This data set can be described thus: stability to acid. In kind it is physicochemical.

The text below walks through data of patent publication US20070264340A1, “Aromachemicals” (Flexitral, Inc., priority 2006, published 2007).

Regarding `CC(C)=CCCC1(C)CC1C=O` (racemic) [2-methyl-2-(4-methylpent-3-en-1-yl)cyclopropanecarbaldehyde], the stability to acid result is listed as “stable to acid”.
